The text below walks through data of patent US20240002375A1, “2-(INDAZOL-5-YL)-6-(PIPERIDIN-4-YL)-1,7-NAPHTHYRIDINE DERIVATIVES AND RELATED COMPOUNDS AS MODULATORS FOR SPLICING NUCLEIC ACIDS AND FOR THE TRE” (REMIX THERAPEUTICS INC., priority 2020, published 2024).

Some results are limits rather than exact numbers.

By IC50 is commonly meant the concentration that inhibits the measured activity by half. A word on the AC50: it is the midpoint of the concentration-response curve, whichever way the signal moves.

Assay type in all cases: cell-based
In one assay the test system is HTT CJ mRNA. Briefly: Gene panel canonical junction qPCR splicing assay, HTT. The following applies: Table 4, read-out: HTT IC50 (decrease in CJ mRNA levels). The protocol:
(§1) Compounds described herein were used to modulate RNA transcript abundance in cells. The expression of a target mRNA was measured by detecting the formation of an exon-exon junction in the canonical transcript (CJ). A compound mediated exon-inclusion event was detected by observing an increase in formation of a new junction with an alternative exon (AJ). Real-time qPCR assays were used to detect these splicing switches and interrogate the potency of various compounds towards different target genes. A high-throughput real time quantitative PCR (RT-qPCR) assay was developed to measure these two isoforms of the mRNA (CJ and AJ) for an exemplary gene, HTT, together with a control housekeeping gene, GAPDH or GUSB or PPIA, used for normalization. Briefly, the A673 or K562 cell line was treated with various compounds described herein (e.g., compounds of Formula (I) or (II)). After treatment, the levels of the HTT mRNA targets were determined from each sample of cell lysate by cDNA synthesis followed by qPCR. The data analysis was performed by first determining the ΔCt vs the housekeeper gene. This ΔCt was then normalized against the DMSO control (ΔΔCt) and converted to RQ (relative quantification) using the 2^(−ΔΔCt) equation. The RQ were then converted to a percentage response by arbitrarily setting an assay window of 3.5 ΔCt for HTT-CJ and an assay window of 9 ΔCt for HTT-AJ. […] The percentage response was then fitted to the 4 parametric logistic equation to evaluate the concentration dependence of compound treatment. The increase in AJ mRNA is reported as AC50 (compound concentration having 50% response in AJ increase) while the decrease in CJ mRNA levels is reported as IC50 (compound concentration having 50% response in CJ decrease). Additional studies were carried out for a larger panel of genes using the protocol provided above. The junction between flanking upstream and downstream exons was used to design canonical junction qPCR assays. At least one of the forward primer, reverse primer or the CY5-labeled 5′ nuclease probe (with 3′ quencher such as ZEN/Iowa Black FQ) was designed to overlap with the exon junction to capture the CJ mRNA transcript. BLAST was used to confirm the specificity of the probeset and parameters such as melting temperature, GC content, amplicon size, and primer dimer formation are considered during their design. Data for the decrease in CJ mRNA levels for three exemplary genes (HTT, SMN2, and Target C) analyzed in this panel are reported as IC50 (compound concentration having 50% response in CJ decrease).
A general note: In qPCR the cycle at which signal appears reflects the starting amount.

For another assay, the system named is Target C CJ mRNA. Briefly: Gene panel canonical junction qPCR splicing assay, Target C. The conditions noted are these: Table 4, read-out: Target C IC50 (decrease in CJ mRNA levels). As for the experimental part:
as §1

In another assay the test system is HTT mRNA. Put plainly: Splicing assay (RT-qPCR) of HTT mRNA alternative junction (AJ) and canonical junction (CJ). The conditions noted are these: A673 or K562 cells, 24 hours; for IC50: decrease in CJ mRNA, read-out: HTT CJ IC50; for AC50: increase in AJ mRNA, read-out: HTT AJ AC50. The protocol:
Compounds described herein were used to modulate RNA transcript abundance in cells. The expression of a target mRNA was measured by detecting the formation of an exon-exon junction in the canonical transcript (CJ). A compound mediated exon-inclusion event was detected by observing an increase in formation of a new junction with an alternative exon (AJ). Real-time qPCR assays were used to detect these splicing switches and interrogate the potency of various compounds towards different target genes. A high-throughput real time quantitative PCR (RT-qPCR) assay was developed to measure these two isoforms of the mRNA (CJ and AJ) for an exemplary gene, HTT, together with a control housekeeping gene, GAPDH or GUSB or PPIA, used for normalization. Briefly, the A673 or K562 cell line was treated with various compounds described herein (e.g., compounds of Formula (I) or (II)). After treatment, the levels of the HTT mRNA targets were determined from each sample of cell lysate by cDNA synthesis followed by qPCR.
Materials: • Cells-to-CT 1-step kit: ThermoFisher A25602, Cells-to-CT lysis reagent: ThermoFisher 4391851C, TagMan™ Fast Virus 1-Step Master Mix: ThermoFisher 4444436 • GAPDH: VIC-PL, ThermoFisher 4326317E (Assay: Hs99999905_ml)—used for K562/suspension cell lines • GUSB: VIC-PL, ThermoFisher 4326320E (Assay: Hs99999908 ml)—used for K562/suspension cell lines • PPIA: VIC-PL, ThermoFisher 4326316E (Assay: Hs99999904 ml)—used for A673/adherent cell lines
The A673 cell line was cultured in DMEM with 10% FBS. Cells were diluted with full growth media and plated in a 96-well plate (15,000 cells in 100 ul media per well). The plate was incubated at 37° C. with 5% CO2 for 24 hours to allow cells to adhere. An 11-point 3-fold serial dilution of the compounds was made in DMSO then diluted in media in an intermediate plate. Compounds were transferred from the intermediate plate to the cell plate with the top dose at a final concentration of 10 uM in the well. Final DMSO concentration was kept at or below 0.25%. The cell plate was returned to the incubator at 37° C. with 5% CO2 for an additional 24 hours.
The K562 cell line was cultured in IMDM with 10% FBS. For K562, cells were diluted with full growth media and plated in either a 96-well plate (50,000 cells in 50 uL media per well) or a 384-well plate (8,000-40,000 cells in 45 uL media per well). An 11-point 3-fold serial dilution of the compounds were made in DMSO then diluted in media in an intermediate plate. Compound was transferred from the intermediate plate to the cell plate with the top dose at a final concentration of 10 uM in the well. Final DMSO concentration was kept at or below 0.25%. Final volume was 100 uL for 96-well plate and 50 uL for 384-well plate. The cell plate was then placed in an incubator at 37° C. with 5% CO2 for 24 hours.
The cells were then gently washed with 50 uL-100 uL cold PBS before proceeding to addition of lysis buffer. 30 uL-50 uL of room temperature lysis buffer with DNAse I (and optionally RNAsin) was added to each well. Cells were shaken/mixed thoroughly at room temperature for 5-10 minutes for lysis to take place and then 3 uL-5 uL of room temperature stop solution was added and wells were shaken/mixed again. After 2-5 minutes, the cell lysate plate was transferred to ice for RT-qPCR reaction setup. The lysates could also be frozen at −80° C. for later use.
In some cases, a direct lysis buffer was used. An appropriate volume of 3X lysis buffer (10 mM Tris, 150 mM NaCl, 1.5%-2.5% Igepal and 0.1-1 U/uL RNAsin, pH 7.4) was directly added to either K562 or A673 cells in media and mixed by pipetting 3 times. The plates were then incubated at room temperature with shaking/rocking for 20-50 minutes to allow for lysis to take place. After this time, the cell lysate plate was transferred to ice to set up for the RT-qPCR reactions. The lysates could also be frozen at −80° C. for later use. […]

The test system of the next assay is SMN2 CJ mRNA. Put plainly: Gene panel canonical junction qPCR splicing assay, SMN2. The conditions noted are these: Table 4, read-out: SMN2 IC50 (decrease in CJ mRNA levels). The protocol: as §1

As to `Cc1c(O)c(-c2ccc3nc(N4CCC(NC5(C)CC5)C4)ccc3n2)cc2cn(C)nc12` (racemic) [Compound 224, 2,7-dimethyl-5-(6-{3-[(1-methylcyclopropyl)amino]pyrrolidin-1-yl}-1,5-naphthyridin-2-yl) indazol-6-ol], the half-inhibitory concentration (IC50) in the assay with HTT CJ mRNA, in the assay with Target C CJ mRNA, in the assay with HTT mRNA and with SMN2 CJ mRNA was under 100 nM throughout. Moreover, the half-maximal activity concentration (AC50) with HTT mRNA is under 100 nM.
For `C[C@H]1C[C@H](c2ccc3nc(-c4cc5cn(C)nc5cc4O)ccc3n2)CCN1` (relative stereo) [Compound 139, 2-methyl-5-[6-[(2S,4R)-2-methylpiperidin-4-yl]-1,5-naphthyridin-2-yl]indazol-6-ol], the 50% inhibitory concentration (IC50) is under 100 nM in the assay on HTT CJ mRNA, 100 to 1000 nM in the assay on Target C CJ mRNA, under 100 nM with HTT mRNA and under 100 nM with SMN2 CJ mRNA. For the same compound, the AC50 with HTT mRNA was under 100 nM.
As to `C[C@H]1C[C@@H](c2ccc3nc(-c4cc5cn(C)nc5cc4O)ccc3n2)CCN1` (relative stereo) [Compound 140, 2-methyl-5-[6-[(2S,4S)-2-methylpiperidin-4-yl]-1,5-naphthyridin-2-yl]indazol-6-ol], the IC50 in the assay with HTT CJ mRNA is under 100 nM; in the assay on Target C CJ mRNA it was 100 to 1000 nM; in the assay with HTT mRNA it was under 100 nM; in the assay on SMN2 CJ mRNA it was under 100 nM. For the same compound, in the assay on HTT mRNA, the AC50 lay in the range of 100 to 1000 nM.
For the compound `Cc1nc2cc(O)c(-c3ccc4nc(N5CC[C@H](NC6CC6)C5)ccc4n3)cc2o1` (single isomer, unassigned) [Compound 211, 6-{6-[3-(cyclopropylamino)pyrrolidin-1-yl]-1,5-naphthyridin-2-yl}-2-methyl-1,3-benzoxazol-5-ol], the 50% inhibitory concentration (IC50) in the assay on HTT CJ mRNA was under 100 nM; in the assay on Target C CJ mRNA, 100 to 1000 nM; with HTT mRNA it was under 100 nM; in the assay on SMN2 CJ mRNA, under 100 nM. Further, the AC50 in the assay on HTT mRNA is under 100 nM.
As for `Cc1nc2cc(O)c(-c3ccc4nc(N5CC[C@@H](NC6CC6)C5)ccc4n3)cc2o1` (single isomer, unassigned) [Compound 212, 6-{6-[3-(cyclopropylamino)pyrrolidin-1-yl]-1,5-naphthyridin-2-yl}-2-methyl-1,3-benzoxazol-5-ol], the IC50 with HTT CJ mRNA is under 100 nM; in the assay with Target C CJ mRNA, 100 to 1000 nM; in the assay with HTT mRNA, under 100 nM; in the assay on SMN2 CJ mRNA, under 100 nM. Besides, in the assay on HTT mRNA, the AC50 was under 100 nM.
On to `Cc1nc2c(C)c(O)c(-c3ccc4nc(N5CCC(NC(C)(C)C)C5)ccc4n3)cc2o1` (single isomer, unassigned) [Compound 214, 6-{6-[3-(tert-butylamino)pyrrolidin-1-yl]-1,5-naphthyridin-2-yl}-2,4-dimethyl-1,3-benzoxazol-5-ol], for which the half-inhibitory concentration (IC50) with HTT CJ mRNA, in the assay on Target C CJ mRNA, in the assay on HTT mRNA and with SMN2 CJ mRNA was under 100 nM throughout. Moreover, the concentration at half-maximal activity (AC50) in the assay on HTT mRNA is under 100 nM.
Regarding `Cc1nc2c(C)c(O)c(-c3ccc4nc(N5CC[C@@H](NC(C)(C)C)C5)ccc4n3)cc2o1` (single isomer, unassigned) [Compound 215, 6-{6-[3-(tert-butylamino)pyrrolidin-1-yl]-1,5-naphthyridin-2-yl}-2,4-dimethyl-1,3-benzoxazol-5-ol], the IC50 in the assay on HTT CJ mRNA, in the assay with Target C CJ mRNA, in the assay on HTT mRNA and with SMN2 CJ mRNA was under 100 nM throughout. In the assay on HTT mRNA, the concentration at half-maximal activity (AC50) is under 100 nM.
On to `Cc1nc2c(C)c(O)c(-c3ccc4nc(N5CCC(NC6CC6)C5)ccc4n3)cc2o1` (single isomer, unassigned) [Compound 216, 6-{6-[3-(cyclopropylamino)pyrrolidin-1-yl]-1,5-naphthyridin-2-yl}-2,4-dimethyl-1,3-benzoxazol-5-ol], for which the half-inhibitory concentration (IC50) in the assay with HTT CJ mRNA, in the assay with Target C CJ mRNA, in the assay with HTT mRNA and with SMN2 CJ mRNA was under 100 nM throughout. Further, the AC50 in the assay with HTT mRNA was under 100 nM.
On to `Cc1nc2c(C)c(O)c(-c3ccc4nc(N5CCC(NC6CC6)C5)ccc4n3)cc2o1` (single isomer, unassigned) [Compound 217, 6-{6-[3-(cyclopropylamino)pyrrolidin-1-yl]-1,5-naphthyridin-2-yl}-2,4-dimethyl-1,3-benzoxazol-5-ol], for which the IC50 with HTT CJ mRNA, in the assay on Target C CJ mRNA, in the assay with HTT mRNA and in the assay with SMN2 CJ mRNA was under 100 nM each time. Moreover, in the assay with HTT mRNA, the concentration at half-maximal activity (AC50) is under 100 nM.
`Cn1cc2cc(-c3ccc4nc(N5CC[C@@H](NC6(C)CC6)C5)ccc4n3)c(O)cc2n1` (single isomer, unassigned) [Compound 220]: the IC50 with HTT CJ mRNA, with Target C CJ mRNA, in the assay with HTT mRNA and in the assay on SMN2 CJ mRNA was under 100 nM throughout. Further, the half-maximal activity concentration (AC50) in the assay on HTT mRNA was under 100 nM.
Take `CN1CCC12CCN(c1ccc3nc(-c4cc5cn(C)nc5cc4O)ccc3n1)C2` (stereo not shown) [Compound 181, 2-methyl-5-(6-{1-methyl-1,6-diazaspiro[3.4]octan-6-yl}-1,5-naphthyridin-2-yl) indazol-6-ol]: the IC50 with HTT mRNA lay within 100 to 1000 nM.
Consider `Cn1cc2cc(-c3ccc4nc(N5CCC(NC(C)(C)C)C5)ccc4n3)c(F)cc2n1` (stereo not shown) [Compound 183], for which the IC50 in the assay with HTT mRNA is over 10000 nM.
